# Measured values as given in patent US5756813A, “Hindered aromatic ester compounds useful as anti-viral agents” (Uniroyal Chemical Ltd/Uniroyal Chemical Ltee, priority 1996, dated 1998).
# Values joined by “and” are separate entries in the source; they are usually repeats but may differ in a detail not shown here. Identical values can stand only once. Like-named read-outs stand apart in the source and are kept apart here.
# Assays:
# HIV-1 = assay: NCI in vitro anti-HIV screen: reduction of HIV-1 cytopathic effect in T4 lymphocytes (CEM cell line), XTT/formazan readout; type: cell-based, HIV-1 (in human cell line CEM); conditions: replicate tests; for TI50 (therapeutic index, IC50/EC50): calculated as IC50/EC50, CEM cells
# Protocol: Representative compounds of this invention were tested for anti-viral activity by subjecting them to standard National Cancer Institute ("NCI") in vitro screening procedures. Two blanks were run with each test. The NCI test for agents active against HIV is designed to detect agents acting at any stage of the virus reproduction cycle.
# In the test assay, small amounts of HIV are added to T4 lymphocyte cells. The assay measures the amount of T4 lymphocytes "killed" by HIV cytolysis. Since a complete cycle of viral reproduction is necessary to "kill" the T4 lymphocyte cells, agents that interfere with viral reproduction will protect the cells from cytolysis.
# The NCI system is automated in several features to accomodate large numbers of candidate agents and is generally designed to detect anti-HIV activity. […] All tests are compared with at least one positive (AZT-treated) control done at the same time under identical conditions.
# (§1) 1) The test compound was dissolved in dimethyl sulfoxide and diluted 1:100 in cell culture medium before serial half-log10 dilutions were prepared. T4 lymphocytes (CEM cell line) were then added to the cell culture medium, and, finally, after a brief interval, HIV-1 was added, resulting in a 1:200 final dilution of the test compound. Uninfected cells in the cell culture medium containing the test compound (i.e., minus HIV-1) were used as a toxicity control, and infected cells in the cell culture medium without the test compound and uninfected cells in the cell culture medium without the test compound, were used as basic controls.
# (§2) 2) The cultures were incubated at 37° C. in a 5% carbon dioxide atmosphere for 6 days.
# (§3) 3) The tetrazolium salt, XTT, was added to all wells, and the cultures were then incubated to allow formazan color development by viable cells.
# (§4) 4) Individual wells were analyzed spectrophotometrically to quantitate formazan production, and were also viewed microscopically for detection of viable cells and confirmation of protective activity.
# (§5) 5) Virus-infected cells exposed to the test compound were compared with noninfected cells exposed to the test compound, and with other appropriate controls (infected cells not exposed to the test compound and noninfected cells not exposed to the test compound, wells containing only the test compound in the cell culture medium, and so on) on the same plate. These are the first and second blanks described below.
# 6) Data were reviewed in comparison with other tests done at the same time and a determination concerning activity was made. In the first blank, HIV and T4 lymphocytes in cell culture medium, were incubated together to measure the infectivity of the virus. The viability of the cells was measured after holding for six or seven days. In an "effective" test, most cells were infected before the holding period was complete.
# Finally, the protective effects of the test compounds were measured. Each cell culture and test compound were incubated with the virus and the viability of the cells was measured as a function of compound concentration after incubation for six or seven days. The concentration of the test compound that results in 50% "control," i.e., a 50% reduction of the viral cytopathic effect, is defined as its EC50. The therapeutic index TI50 was calculated as IC50 /EC50.
# Concentrations of test compounds required for between 20 and 50% reduction of the viral cytopathic effect can also be determined. Such compounds are classified as moderately active.
# (§6) The compounds were tested to determine their reduction of HIV cytopathic effect on the human cell line CEM. Tests were done by innoculating these cell lines in-well (IW), i.e., the test compound and CEM cells were mixed on a test plate and the virus was added a short time later.
# [1] = test system: T4 lymphocytes (CEM cell line); assay: Toxicity to uninfected T4 lymphocytes (CEM cell line): 50% inhibition of cell growth (second blank); type: cell-based, human; conditions: uninfected CEM cells, no HIV-1, cytotoxicity, replicate tests, read-out: IC50 (concentration that results in 50% inhibition of cell growth)
# Protocol: as §1, §2, §3, §4, §5
# In the second blank, the T4 lymphocytes in cell culture medium and the test compound (with no HIV-1) were incubated together to measure the toxicity of the drug to the cellline. The viability of the cells was measured as a function of concentration of the compound, after incubation for seven days. The concentration of the test compound that results in 50% inhibition of cell growth is defined as its IC50.
# as §6
# [2] = HIV-1 infected CEM cells, in-well (IW) inoculation, six or seven days, read-out: EC50 (concentration that results in 50% reduction of the viral cytopathic effect)
# [3] = Human immunodeficiency virus 1, CCRF-CEM, 168 h, HIV-1 infected CEM cells, in-well (IW) inoculation, six or seven days, read-out: EC50 (concentration that results in 50% reduction of the viral cytopathic effect)
smiles,measurement,setting,value
CC1(OC(=O)c2cc(NC(=O)c3ccccc3)ccc2Cl)CCCC1 [Compound 1],EC50,HIV-1; [2],11.5 µM and 15.2 µM and 17.6 µM
same,EC50,HIV-1; [3],17.3 µM
same,"TI50 (therapeutic index, IC50/EC50)",HIV-1,2 and 4
same,IC50,"[1]; Homo sapiens, CCRF-CEM",41.8 µM
same,IC50,[1],49.5 µM and 32.7 µM and 32 µM
CC1(OC(=O)c2cc(NC(=S)c3ccccc3)ccc2Cl)CCCC1 [Compound 2],EC50,HIV-1; [2],0.216 µM and 0.232 µM and 0.398 µM and 0.598 µM
same,"TI50 (therapeutic index, IC50/EC50)",HIV-1,137 and 124 and 78 and 54
same,IC50,"[1]; Homo sapiens, CCRF-CEM",29.4 µM
same,IC50,[1],28.8 µM and 31 µM and 32 µM
CC1CCCC1OC(=O)c1cc(NC(=S)c2ccccc2)ccc1Cl (stereo not drawn) [Compound 3],EC50,HIV-1; [2],0.0867 µM and 0.0783 µM and 0.101 µM
same,EC50,HIV-1; [3],0.0967 µM
same,"TI50 (therapeutic index, IC50/EC50)",HIV-1,146 and 141 and 180 and 136
same,IC50,"[1]; Homo sapiens, CCRF-CEM",14.1 µM
same,IC50,[1],12.2 µM and 13.8 µM
CC1CCCC(C)C1OC(=O)c1cc(NC(=S)c2ccccc2)ccc1Cl (stereo not drawn) [Compound 4],EC50,HIV-1; [2],0.94 µM and 2.1 µM and 0.95 µM and 0.37 µM
same,"TI50 (therapeutic index, IC50/EC50)",HIV-1,> 14 and > 6 and > 35
same,IC50,"[1]; Homo sapiens, CCRF-CEM",> 13 µM
CC1CCCCC1OC(=O)c1cc(NC(=S)c2ccccc2)ccc1Cl (stereo not drawn) [Compound 5],EC50,HIV-1; [2],0.175 µM and 0.199 µM and 0.0791 µM and 0.126 µM
same,"TI50 (therapeutic index, IC50/EC50)",HIV-1,92 and 71 and 172 and 107
same,IC50,"[1]; Homo sapiens, CCRF-CEM",16 µM
same,IC50,[1],14.1 µM and 13.6 µM and 13.4 µM
CC1=C(C(=O)Nc2ccc(Cl)c(C(=O)OC3CCCCC3C)c2)SCCO1 (stereo not drawn) [Compound 6],"TI50 (therapeutic index, IC50/EC50)",HIV-1,> 1 and > 18 and 19 and 18
same,IC50,"[1]; Homo sapiens, CCRF-CEM",> 24 µM
same,IC50,[1],14 µM and 20 µM
CC1CCC(OC(=O)c2cc(NC(=O)c3ccccc3)ccc2Cl)C1 (stereo not drawn) [Compound 7],EC50,HIV-1; [2],5.8 µM and 3.6 µM and 6.1 µM
same,EC50,HIV-1; [3],5.7 µM
same,"TI50 (therapeutic index, IC50/EC50)",HIV-1,3 and 2 and 5
same,IC50,"[1]; Homo sapiens, CCRF-CEM",19 µM
same,IC50,[1],11 µM and 17 µM and 14 µM
CC1CCC(OC(=O)c2cc(NC(=S)c3ccccc3)ccc2Cl)C1 (stereo not drawn) [Compound 8],EC50,HIV-1; [2],0.195 µM and 0.184 µM and 0.181 µM
same,EC50,HIV-1; [3],0.213 µM
same,"TI50 (therapeutic index, IC50/EC50)",HIV-1,68 and 69 and 80 and 72
same,IC50,"[1]; Homo sapiens, CCRF-CEM",14.6 µM
same,IC50,[1],13.5 µM and 14.8 µM and 13.1 µM
"CC1CCCCC1OC(=O)c1cc(NC(=O)c2ccccc2)ccc1Cl (stereo not drawn) [Compound 9, 2-methylcyclohexyl 2-chloro-5-(benzoylamino)benzoate]",EC50,"HIV-1; Human immunodeficiency virus 1, CCRF-CEM, 168 h, read-out: EC50 (concentration that results in 50% reduction of the viral cytopathic effect), HIV-1 infected CEM cells, in-well (IW) inoculation, six or seven days",4.65 µM
same,"TI50 (therapeutic index, IC50/EC50)",HIV-1,31 and 28 and 65
same,EC50,"HIV-1; read-out: EC50 (concentration that results in 50% reduction of the viral cytopathic effect), HIV-1 infected CEM cells, in-well (IW) inoculation, six or seven days",4.47 µM and 2.37 µM
same,IC50,"[1]; Homo sapiens, CCRF-CEM",14.2 µM
same,IC50,[1],12.6 µM and 15.3 µM and 14.5 µM
Cc1ccccc1C(=O)Nc1ccc(Cl)c(C(=O)OC2CCCCC2C)c1 (stereo not drawn) [Compound 10],EC50,HIV-1; [2],2.39 µM and 1.75 µM and 1.3 µM and 1.13 µM
same,"TI50 (therapeutic index, IC50/EC50)",HIV-1,8 and 10 and 13 and 15
same,IC50,"[1]; Homo sapiens, CCRF-CEM",19.7 µM
same,IC50,[1],16.9 µM and 17.1 µM and 16.6 µM
Cc1ccccc1C(=S)Nc1ccc(Cl)c(C(=O)OC2CCCCC2C)c1 (stereo not drawn) [Compound 11],EC50,HIV-1; [2],5.4 µM and 4.4 µM
same,EC50,HIV-1; [3],5 µM
same,"TI50 (therapeutic index, IC50/EC50)",HIV-1,> 2
same,IC50,"[1]; Homo sapiens, CCRF-CEM",> 9.4 µM
CC(OC(=O)c1cc(NC(=S)c2ccccc2)ccc1Cl)C1CCCC1 (stereo not drawn) [Compound 12],EC50,HIV-1; [2],0.23 µM and 0.27 µM
same,EC50,HIV-1; [3],0.28 µM
same,"TI50 (therapeutic index, IC50/EC50)",HIV-1,> 48 and > 60 and > 50
same,IC50,"[1]; Homo sapiens, CCRF-CEM",> 14 µM
CC(OC(=O)c1cc(NC(=S)c2ccccc2)ccc1Cl)C1CC1 (stereo not drawn) [Compound 13],EC50,HIV-1; [2],2.1 µM and 2.2 µM and 0.79 µM and 0.72 µM
same,"TI50 (therapeutic index, IC50/EC50)",HIV-1,> 18 and > 17 and > 48 and > 52
same,IC50,"[1]; Homo sapiens, CCRF-CEM",> 38 µM
Cc1occc1C(=O)Nc1ccc(Cl)c(C(=O)OC(C)C2CCCC2)c1 (stereo not drawn) [Compound 14],EC50,HIV-1; [2],0.84 µM and 1.1 µM and 0.77 µM and 2.3 µM and 1.7 µM
same,"TI50 (therapeutic index, IC50/EC50)",HIV-1,9 and > 13 and > 18 and > 6 and > 8
same,IC50,"[1]; Homo sapiens, CCRF-CEM",7.7 µM
same,IC50,[1],> 14 µM
Cc1occc1C(=O)Nc1ccc(Cl)c(C(=O)OC(C)C2CC2)c1 (stereo not drawn) [Compound 15],EC50,HIV-1; [2],1.4 µM and 2.5 µM and 1.1 µM
same,"TI50 (therapeutic index, IC50/EC50)",HIV-1,> 14 and > 8 and > 19
same,IC50,"[1]; Homo sapiens, CCRF-CEM",> 21 µM
Cc1occc1C(=S)Nc1ccc(Cl)c(C(=O)OC(C)C2CC2)c1 (stereo not drawn) [Compound 16],"TI50 (therapeutic index, IC50/EC50)",HIV-1,> 440 and > 240 and > 1600
same,IC50,"[1]; Homo sapiens, CCRF-CEM",> 20 µM
CC(OC(=O)c1cc(NC(=O)c2cccn2C)ccc1Cl)C1CC1 (stereo not drawn) [Compound 17],EC50,HIV-1; [2],5.3 µM and 9.7 µM and 5 µM and 4.1 µM
same,"TI50 (therapeutic index, IC50/EC50)",HIV-1,> 10 and > 6 and > 11 and > 13
same,IC50,"[1]; Homo sapiens, CCRF-CEM",> 54 µM
